Measured values taken from publication PMC10892041, “Vanadium Complexes with Thioanilide Derivatives of Amino Acids: Inhibition of Human Phosphatases and Specificity in Various Cell Models of Metabolic Disturbances” (Pharmaceuticals, 2024).

Assays:
Format in all cases: biochemical
PTP1B = molecular target: T1, PTP1B (Homo sapiens, UniProt P18031); assay: Inhibition of human recombinant tyrosine phosphatase PTP1B (DiFMUP fluorescence); settings: for Inhibition of PTP1B, percentage of inhibition of the control: 1 µM, control solvent only, SD did not exceed 6%; for Log IC50 ± SD PTP1B: logarithm of IC50; for IC50: read-out: IC50 PTP1B
T1 construct: purchased Sigma-Aldrich
T1 sequence (P18031 1-435): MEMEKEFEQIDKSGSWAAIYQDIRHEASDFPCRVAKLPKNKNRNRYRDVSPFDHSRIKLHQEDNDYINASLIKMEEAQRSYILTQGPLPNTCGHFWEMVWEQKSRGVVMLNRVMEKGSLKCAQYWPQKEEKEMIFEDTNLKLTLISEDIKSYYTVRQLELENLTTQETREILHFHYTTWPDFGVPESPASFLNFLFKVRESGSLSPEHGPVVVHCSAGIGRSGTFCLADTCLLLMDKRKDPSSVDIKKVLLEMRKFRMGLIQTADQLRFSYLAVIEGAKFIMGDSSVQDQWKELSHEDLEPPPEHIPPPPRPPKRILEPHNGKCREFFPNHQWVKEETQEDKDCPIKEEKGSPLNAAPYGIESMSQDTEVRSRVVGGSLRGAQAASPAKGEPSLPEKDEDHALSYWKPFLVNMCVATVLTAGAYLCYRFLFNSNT
Experimental: (§1) To determine the ability of the tested compounds for inhibition tyrosine phosphatases, human recombinant proteins were used (Sigma-Aldrich). The reactions were performed in black opaque 384-well microplates (PerkinElmer, Waltham, MA, USA). An equal volume of phosphatase solution in a reaction buffer (25 mM of 3-(N-morpholino)propanesulfonic acid (MOPS), 50 mM NaCl, 1 mM dithiothreitol (DTT), and 0.05% Tween-20 (pH 7.0)) was added to the solution of the tested compound on microplate. These solutions were dispensed using an automated injector. The following final concentrations of the tested phosphatases were used: PTP1B 50 ng/mL, SHP1 400 ng/mL, SHP2 50 ng/mL, LAR 5 ng/mL, and PTPRA 100 ng/mL. After 10 min, a solution of phosphate 6,8-difluoro-4-methyl (DiFMUP; Thermo Fisher Scientific) was added until its final concentration was 0.1 mM. Samples were incubated for 20 miN at 23 °C, and then the measurements of fluorescence intensity (excitation 355 and emission […]) were performed on a multifunctional plate reader POLARstar Omega (BMG Labtech, Ortenberg, Germany). Assays were performed in triplicate. For the screening assays, the final concentration of the tested compounds was 1 µM. The results were expressed as percent inhibition of untreated control (enzyme with vehicle only) for the screening tests. […] IC50 were calculated using GraphPad Prism version 6.0 software (GraphPad Software, Boston, MA, USA).

SHP1 = molecular target: T2, SHP1 (Homo sapiens, UniProt P29350); assay: Inhibition of human recombinant tyrosine phosphatase SHP1 (DiFMUP fluorescence); settings: for Log IC50 ± SD SHP1: logarithm of IC50
T2 construct: purchased Sigma-Aldrich
Experimental: as §1

LAR = molecular target: T3, LAR (Homo sapiens, UniProt P10586); assay: Inhibition of human recombinant tyrosine phosphatase LAR (DiFMUP fluorescence)
T3 sequence (P10586 1352-1607 limits assumed): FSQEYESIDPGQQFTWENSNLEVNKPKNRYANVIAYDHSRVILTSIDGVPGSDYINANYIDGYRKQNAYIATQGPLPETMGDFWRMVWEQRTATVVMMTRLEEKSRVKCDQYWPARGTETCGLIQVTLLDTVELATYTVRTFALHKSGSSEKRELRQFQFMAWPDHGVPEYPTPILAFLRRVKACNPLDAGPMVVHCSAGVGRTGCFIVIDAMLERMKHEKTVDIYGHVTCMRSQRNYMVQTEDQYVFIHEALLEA
Experimental: as §1

SHP2 = molecular target: T4, SHP2 (Homo sapiens, UniProt Q06124); assay: Inhibition of human recombinant tyrosine phosphatase SHP2 (DiFMUP fluorescence)
T4 construct: purchased Sigma-Aldrich
T4 sequence (Q06124 1-593): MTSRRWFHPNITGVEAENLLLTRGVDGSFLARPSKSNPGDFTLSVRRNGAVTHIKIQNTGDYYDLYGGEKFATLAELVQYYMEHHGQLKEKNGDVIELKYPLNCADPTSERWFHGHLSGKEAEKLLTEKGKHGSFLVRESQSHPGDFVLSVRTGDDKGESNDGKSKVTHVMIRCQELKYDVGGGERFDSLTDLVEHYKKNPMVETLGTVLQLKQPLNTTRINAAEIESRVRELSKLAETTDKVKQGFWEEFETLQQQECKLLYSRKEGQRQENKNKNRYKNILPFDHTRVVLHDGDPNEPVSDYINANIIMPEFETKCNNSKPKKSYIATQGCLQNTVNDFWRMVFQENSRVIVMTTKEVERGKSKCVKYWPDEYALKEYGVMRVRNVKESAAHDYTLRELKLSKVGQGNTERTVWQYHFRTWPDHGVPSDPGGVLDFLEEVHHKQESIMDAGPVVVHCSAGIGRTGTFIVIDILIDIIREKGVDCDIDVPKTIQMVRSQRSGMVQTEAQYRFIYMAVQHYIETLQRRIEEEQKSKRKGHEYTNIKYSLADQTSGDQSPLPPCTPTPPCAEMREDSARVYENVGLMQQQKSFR
Experimental: as §1

PP2A = PP2A (Homo sapiens, UniProt P67775); assay: Inhibition of human recombinant non-tyrosine phosphatase PP2A (DiFMUP)
Experimental: (§2) For the inhibition assay of non-tyrosine phosphatases, human recombinant proteins were used (Sigma-Aldrich). The reactions were performed in black opaque 384-well microplates (PerkinElmer). To the solution of the tested complexes, an equal volume of a test solution of phosphatase was added. CDC25A were diluted in reaction buffer to the final concentration of 400 ng/mL as for tyrosine phosphatases (described in the section above), and PPA2 (final 0.5 U/mL) was diluted in 50 mM Tris-HCl, 0.05% Tween-20, and 125 µg/mL protease-free bovine serum albumin (pH 7.0). These solutions were dispensed using an automated injector. After 10 min, a solution of phosphate 6,8-difluoro-4-methyl (DiFMUP; Thermo Fisher Scientific) was added for the PPA2 sample until the final concentration 0.1 mM. For CDC25A samples, 3-O-methylfluorescein phosphate for the final concentration of 0.2 mM was added. Samples were incubated for 180 min at 23 °C, and then the measurements of fluorescence intensity (excitation 355 and emission 560 nm) were performed on a multifunctional plate reader POLARstar Omega (BMG Labtech). Assays were performed in triplicate. The results were expressed as percent of inhibition of untreated control (enzyme with vehicle solvent only).

CDC25A = molecular target: T5, CDC25A (Homo sapiens, UniProt P30304); assay: Inhibition of human recombinant non-tyrosine phosphatase CDC25A (3-O-methylfluorescein phosphate)
T5 construct: purchased Sigma-Aldrich
T5 sequence (P30304 1-524): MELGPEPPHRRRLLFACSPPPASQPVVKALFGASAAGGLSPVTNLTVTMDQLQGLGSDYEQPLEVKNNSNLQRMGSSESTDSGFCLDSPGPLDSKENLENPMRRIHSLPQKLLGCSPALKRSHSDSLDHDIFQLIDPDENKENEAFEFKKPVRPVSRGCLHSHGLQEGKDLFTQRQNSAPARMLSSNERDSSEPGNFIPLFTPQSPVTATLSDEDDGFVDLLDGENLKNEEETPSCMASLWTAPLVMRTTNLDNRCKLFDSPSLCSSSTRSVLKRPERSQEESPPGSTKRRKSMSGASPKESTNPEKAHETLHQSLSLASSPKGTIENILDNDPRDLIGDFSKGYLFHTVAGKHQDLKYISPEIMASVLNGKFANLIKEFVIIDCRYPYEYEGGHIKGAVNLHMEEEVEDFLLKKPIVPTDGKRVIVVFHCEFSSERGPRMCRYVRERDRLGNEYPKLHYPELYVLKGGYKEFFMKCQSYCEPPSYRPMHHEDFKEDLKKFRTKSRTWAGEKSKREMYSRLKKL
Experimental: as §2

[1] = 1 µM, control solvent only, SD did not exceed 6%

T2 sequence (P29350 whole entry): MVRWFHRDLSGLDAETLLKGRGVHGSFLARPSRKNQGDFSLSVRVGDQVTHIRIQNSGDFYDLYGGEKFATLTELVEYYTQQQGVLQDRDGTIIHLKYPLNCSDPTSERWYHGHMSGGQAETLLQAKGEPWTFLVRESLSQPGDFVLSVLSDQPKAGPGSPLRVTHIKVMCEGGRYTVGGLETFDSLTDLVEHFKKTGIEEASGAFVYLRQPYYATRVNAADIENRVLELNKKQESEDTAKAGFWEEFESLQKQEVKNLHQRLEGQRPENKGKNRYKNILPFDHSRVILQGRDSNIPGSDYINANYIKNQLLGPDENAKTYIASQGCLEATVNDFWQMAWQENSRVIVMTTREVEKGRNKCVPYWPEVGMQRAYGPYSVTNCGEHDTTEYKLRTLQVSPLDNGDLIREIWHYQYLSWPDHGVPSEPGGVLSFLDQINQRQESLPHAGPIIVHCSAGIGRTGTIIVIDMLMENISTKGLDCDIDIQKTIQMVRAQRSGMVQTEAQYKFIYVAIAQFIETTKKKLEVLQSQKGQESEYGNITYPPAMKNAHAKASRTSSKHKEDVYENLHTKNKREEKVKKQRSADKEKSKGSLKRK
Chain of PP2A (P67775 whole entry): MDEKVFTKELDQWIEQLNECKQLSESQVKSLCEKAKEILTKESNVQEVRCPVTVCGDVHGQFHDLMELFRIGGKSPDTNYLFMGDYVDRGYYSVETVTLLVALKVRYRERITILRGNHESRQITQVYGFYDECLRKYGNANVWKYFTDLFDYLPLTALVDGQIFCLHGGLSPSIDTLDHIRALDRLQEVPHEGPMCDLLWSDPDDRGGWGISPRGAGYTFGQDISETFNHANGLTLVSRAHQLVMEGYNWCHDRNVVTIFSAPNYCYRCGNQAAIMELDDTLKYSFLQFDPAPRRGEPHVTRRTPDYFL

Row | Inhibition of PTP1B, percentage of inhibition of the control (PTP1B) [%] | Inhibition of SHP1, percentage of inhibition of the control (SHP1; [1]) [%] | Inhibition of LAR, percentage of inhibition of the control (LAR; [1]) [%] | Inhibition of SHP2, percentage of inhibition of the control (SHP2; [1]) [%] | Log IC50 ± SD PTP1B (PTP1B) | IC50 (PTP1B) [nM] | IC50 (SHP1) [nM] | Log IC50 ± SD SHP1 (SHP1) | Inhibition of PP2A, percentage inhibition of control ± SD (PP2A; 1 µM) [%] | Inhibition of PP2A, percentage inhibition of control ± SD (PP2A; 10 µM) [%] | IC50 (LAR) [nM] | IC50 (SHP2) [nM] | Inhibition of CDC25A, percentage inhibition of control ± SD (CDC25A; 1 µM) [%] | Inhibition of CDC25A, percentage inhibition of control ± SD (CDC25A; 10 µM) [%] | Log IC50 ± SD LAR (LAR; logarithm of IC50) | Log IC50 ± SD SHP2 (SHP2; logarithm of IC50) | Compound | inhibition at 1 µM (PTP1B; read-out: Inhibition of PTP1B, percentage of inhibition of the control) [%] | inhibition at 1 µM (SHP1; 1 µM, control solvent only, SD did not exceed 6%, read-out: Inhibition of SHP1, percentage of inhibition of the control) [%] | inhibition at 1 µM (LAR; 1 µM, control solvent only, SD did not exceed 6%, read-out: Inhibition of LAR, percentage of inhibition of the control) [%] | inhibition at 1 µM (SHP2; 1 µM, control solvent only, SD did not exceed 6%, read-out: Inhibition of SHP2, percentage of inhibition of the control) [%]
1 | 25 | 53 | 19 | 57 | −5.37 ± 0.03 | 4260 | 657 | −6.18 ± 0.03 | 24 ± 3 | 51 ± 4 | 1710 | 273 | 12 ± 8 | 38 ± 1 |  |  | [O]=[V]1[O]C(c2ccc(Cl)cc2)=NN=Cc2cc(Br)ccc2[O]1.c1cnc2c(c1)ccc1cccnc12 [VC050, [VO(L11)(phen)]] |  |  |  | 
2 | 70 | 80 | 56 | 83 |  |  |  |  |  |  |  |  |  |  |  |  | CCC(C)C(N=C(C)CC(=S)Nc1ccccc1)C(=O)[O][V](=[O])([Cl])[Cl] (racemic) [VC109, [VOCl2(L5)]·3HCl] |  |  |  | 

Second part, the compound before the results:

Row | Compound | Inhibition of PTP1B, percentage of inhibition of the control (PTP1B) [%] | Inhibition of SHP1, percentage of inhibition of the control (SHP1; [1]) [%] | Inhibition of LAR, percentage of inhibition of the control (LAR; [1]) [%] | Inhibition of SHP2, percentage of inhibition of the control (SHP2; [1]) [%] | Log IC50 ± SD PTP1B (PTP1B) | IC50 (PTP1B) [nM] | IC50 (SHP1) [nM] | Log IC50 ± SD SHP1 (SHP1) | Inhibition of PP2A, percentage inhibition of control ± SD (PP2A; 1 µM) [%] | Inhibition of PP2A, percentage inhibition of control ± SD (PP2A; 10 µM) [%] | IC50 (LAR) [nM] | IC50 (SHP2) [nM] | Inhibition of CDC25A, percentage inhibition of control ± SD (CDC25A; 1 µM) [%] | Inhibition of CDC25A, percentage inhibition of control ± SD (CDC25A; 10 µM) [%] | Log IC50 ± SD LAR (LAR; logarithm of IC50) | Log IC50 ± SD SHP2 (SHP2; logarithm of IC50) | inhibition at 1 µM (PTP1B; read-out: Inhibition of PTP1B, percentage of inhibition of the control) [%] | inhibition at 1 µM (SHP1; 1 µM, control solvent only, SD did not exceed 6%, read-out: Inhibition of SHP1, percentage of inhibition of the control) [%] | inhibition at 1 µM (LAR; 1 µM, control solvent only, SD did not exceed 6%, read-out: Inhibition of LAR, percentage of inhibition of the control) [%] | inhibition at 1 µM (SHP2; 1 µM, control solvent only, SD did not exceed 6%, read-out: Inhibition of SHP2, percentage of inhibition of the control) [%]
3 | C1CCOC1.CSCCC1C(=O)[O][V](=[O])([Cl])([Cl])[N]1C(C)=CC(=S)Nc1ccccc1.Cl (centres unmarked) [VC073, [VOCl2(L4)]·1.5THF·3HCl] | 74 | 82 | 63 | 86 |  |  |  |  |  |  |  |  |  |  |  |  |  |  |  | 
4 | Cc1ccc(C(=O)Nc2ccc(S(=O)(=O)O)c3cc(S(=O)(=O)O)cc(S(=O)(=O)O)c23)cc1NC(=O)c1cccc(NC(=O)Nc2cccc(C(=O)Nc3cc(C(=O)Nc4ccc(S(=O)(=O)O)c5cc(S(=O)(=O)O)cc(S(=O)(=O)O)c45)ccc3C)c2)c1 [Suramin, reference compound] |  |  |  |  |  |  |  |  |  |  |  |  |  |  |  |  | 7 | 17 | 9 | 10
5 | O.[O]=[V]1[O]C(c2ccc(O)cc2)=NN=Cc2cc(Br)ccc2[O]1.c1cnc2c(c1)ccc1cccnc12 [VC046, [VO(L9)(phen)]⋅2H2O] | 34 | 62 | 37 | 66 |  |  |  |  |  |  |  |  |  |  |  |  |  |  |  | 
6 | ammonium heptamolybdate [(NH4)6Mo7O24, reference compound] | 33 | 40 | 28 | 47 | −7.24 ± 0.06 | 58 | 26 | −7.59 ± 0.13 | 18 ± 2 | 53 ± 3 | 38 | 26 | 34 ± 1 | 51 ± 1 | −7.42 ± 0.04 | −7.58 ± 0.04 |  |  |  | 
7 | CC(C)(C)c1ccc(C2=NN=Cc3cc(Br)ccc3[O][V](=[O])[O]2)cc1.O.c1cnc2c(c1)ccc1cccnc12 [VC048, [VO(L10)(phen)]⋅0.5H2O] | 36 | 62 | 35 | 64 |  |  |  |  |  |  |  |  |  |  |  |  |  |  |  | 
